Results reported in patent publication US6727237B2, “Inhibitors of bacterial NAD synthetase” (priority 1998, dated 2004).

target: T1, bacterial NAD synthetase enzyme (Bacillus subtilis, UniProt P08164); assay: biochemical; format: biochemical; conditions: not given
T1 sequence (P08164 2-272 limits assumed): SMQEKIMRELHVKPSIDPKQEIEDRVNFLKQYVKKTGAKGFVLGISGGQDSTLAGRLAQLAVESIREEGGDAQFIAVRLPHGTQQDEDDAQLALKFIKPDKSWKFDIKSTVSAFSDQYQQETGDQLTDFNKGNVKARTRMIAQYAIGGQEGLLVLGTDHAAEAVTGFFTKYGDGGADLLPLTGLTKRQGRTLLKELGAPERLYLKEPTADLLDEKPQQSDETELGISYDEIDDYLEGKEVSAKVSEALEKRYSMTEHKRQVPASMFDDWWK

| SMILES | IC50 | inhibition at 100 µM | inhibition at 200 µM |
| --- | --- | --- | --- |
| CC(=O)c1ccc2[nH]c(CCCCCCCCOC(=O)c3ccc([N+](C)(C)C)cc3)cc2c1 [Compound 894] | 50 µM | 91.1% |  |
| C[N+](C)(C)c1ccc(CC(=O)OCCCCCCCCn2ccc3cc(NC(=O)c4ccccc4)ccc32)cc1 [Compound 1104] | 61 µM |  |  |
| C[N+](C)(C)c1ccc(C(=O)OCCCCCCCc2cc3ccc(C(F)(F)F)cc3[nH]2)cc1 [Compound 884] | 45 µM |  |  |
| C[N+](C)(C)c1ccc(CC(=O)OCCCCCCCCn2ccc3ccccc32)cc1 [Compound 981] | 60 µM |  | 95.2% |
| C[n+]1cccc(C(=O)OCCCCCCCCOc2cccc([N+](=O)[O-])c2)c1 [Compound 1065] | 37.5 µM |  | 81% |
| C[n+]1cccc(C(=O)OCCCOc2ccc(Oc3ccccc3)cc2)c1 [Compound 1070] | 36.2 µM |  | 82% |
| COC(=O)c1cc2cc(OCc3ccccc3)ccc2n1CCCCCCOC(=O)c1ccc[n+](C)c1 [Compound 975] | 38 µM | 55.2% |  |
| C[n+]1cccc(C(=O)OCCCCCCCCCn2ccc3ccccc32)c1 [Compound 970] | 55 µM |  | 96.7% |
| CC(C)c1ccc2[nH]c(CCCCOC(=O)c3ccc([N+](C)(C)C)cc3)cc2c1 [Compound 889] | 75 µM | 93.6% |  |
| C[n+]1cccc(C(=O)OCCCOc2ccccc2C=CC(=O)c2ccccc2)c1 [compound 1066] |  |  | 70% |

same assay, conditions: compound at 0.1 mM (Table 314)

| SMILES | % Inhibition |
| --- | --- |
| CCCCc1ccc2[nH]c(CCCCCCCC[n+]3ccccc3)cc2c1 [Compound 317] | 25.04% |
| CCCCc1ccc2[nH]c(CCCCC[n+]3ccccc3)cc2c1 [Compound 314] | 9.19% |
| CC(C)c1ccc2[nH]c(CCCCC[n+]3ccccc3)cc2c1 [Compound 320] | 44.72% |
| O=[N+]([O-])c1ccc2[nH]c(CCC[n+]3ccc4ccccc4c3)cc2c1 [Compound 546] | 4.72% |
| c1ccc(-c2ccc3[nH]c(CCCC[n+]4ccc5ccccc5c4)cc3c2)cc1 [Compound 541] | 10.26% |
| O=C(OCCCCCCn1ccc2ccccc21)c1cccnc1 [Compound 943] | 21.38% |
| COC(=O)c1cc2ccccc2n1CCCCCCOC(=O)c1ccc[n+](C)c1 [Compound 971] | 100.00% |
| CC(=O)c1ccc2[nH]c(CCCCCCCOC(=O)c3ccc(N(C)C)cc3)cc2c1 [Compound 637] | 4.42% |

same assay, conditions: compound at 0.2 mM (Table 312A)

| SMILES | % Inhibition |
| --- | --- |
| CC(C)c1ccc2[nH]c(CCCCCCC[n+]3ccccc3)cc2c1 [Compound 322] | 14.40% |
| Cc1ccc2[nH]c(CCCCCCC[n+]3ccc4ccccc4c3)cc2c1 [Compound 514] | 22.32% |
| Fc1ccc2[nH]c(CCCC[n+]3ccc4ccccc4c3)cc2c1 [Compound 559] | 33.24% |
| CC(=O)c1ccc2[nH]c(CCCCCCC[n+]3cccc4ccccc43)cc2c1 [Compound 478] | 9.76% |
| O=C(O)c1ccc2[nH]c(CCCCCCCC[n+]3cccc4ccccc43)cc2c1 [Compound 497] | 29.10% |
| O=C(O)c1ccc2[nH]c(CCCC[n+]3ccc4ccccc4c3)cc2c1 [Compound 601] | 2.22% |
| Fc1cc(F)c2[nH]c(CCCCCCCC[n+]3ccccc3)cc2c1 [Compound 305] | 54.83% |
| O=C(c1ccccc1)c1ccc2[nH]c(CCCCCCC[n+]3ccc4ccccc4c3)cc2c1 [Compound 574] | 11.95% |
| O=C(O)c1ccc2[nH]c(CCCCCCC[n+]3ccccc3)cc2c1 [Compound 388] | 25.86% |
| COc1ccc2[nH]c(CCCCCCC[n+]3ccc4ccccc4c3)cc2c1 [Compound 592] | 18.70% |
| Fc1ccc2[nH]c(CCCCCCC[n+]3cccc4ccccc43)cc2c1 [Compound 454] | 7.95% |
| COC(=O)c1ccc2[nH]c(CCC[n+]3ccc4ccccc4c3)cc2c1 [Compound 594] | 2.77% |
| c1ccc(-c2ccc3[nH]c(CCCCCCCC[n+]4ccccc4)cc3c2)cc1 [Compound 329] | 30.77% |
| O=C(O)c1ccc2[nH]c(CCCCCCC[n+]3cccc4ccccc43)cc2c1 [Compound 496] | 36.97% |
| Fc1ccc2[nH]c(CCCC[n+]3ccccc3)cc2c1 [Compound 343] | 10.82% |
| COc1ccc2[nH]c(CCC[n+]3ccc4ccccc4c3)cc2c1 [Compound 588] | 2.49% |
| C[n+]1cccc(C(=O)OCCCCCCCn2ccc3ccccc32)c1 [Compound 968] | 88.52% |
| c1ccc(Oc2ccc3[nH]c(CCC[n+]4ccccc4)cc3c2)cc1 [Compound 348] | 44.42% |
| FC(F)(F)c1ccc2cc(CCCC[n+]3ccc4ccccc4c3)[nH]c2c1 [Compound 505] | 25.51% |
| O=C(c1ccccc1)c1ccc2[nH]c(CCCCCCCC[n+]3ccc4ccccc4c3)cc2c1 [Compound 575] | 42.01% |
| CC(=O)c1ccc2[nH]c(CCCCCCCC[n+]3ccccc3)cc2c1 [Compound 371] | 43.85% |
| O=[N+]([O-])c1cc([N+](=O)[O-])c2[nH]c(CCCCCCCC[n+]3ccccc3)cc2c1 [Compound 311] | 29.67% |
| O=[N+]([O-])c1cc([N+](=O)[O-])c2[nH]c(CCCCCC[n+]3ccc4ccccc4c3)cc2c1 [Compound 525] | 8.39% |
| C[n+]1cccc(C(=O)OCCCCCCCCn2ccc3cc([N+](=O)[O-])ccc32)c1 [Compound 867] | 70.33% |
| COC(=O)c1ccc2[nH]c(CCCCCCCC[n+]3ccccc3)cc2c1 [Compound 383] | 2.76% |

same assay, conditions: compound at 0.2 mM (Table 312B)

| SMILES | % Inhibition |
| --- | --- |
| CC(=O)N1CCN(c2ccc(OCCCCCCCCOC(=O)Cc3ccc(N(C)C)cc3)cc2)CC1 [Compound 1025] | 15% |
| COc1ccccc1OCCCCCCCCOC(=O)Cc1ccc(N(C)C)cc1 [Compound 1039] | 30% |
| O=C(OCCCCCCCCOc1ccc([N+](=O)[O-])cc1)c1cccnc1 [Compound 995] | 27% |
| CC(=O)Oc1cccc(OCCCCCCCCOC(=O)Cc2ccc(N(C)C)cc2)c1 [Compound 1027] | 2% |

same assay, conditions: compound at 0.25 mM

| SMILES | % Inhibition |
| --- | --- |
| CC(C)c1ccc2[nH]c(CCCCOC(=O)Cc3ccc[n+](C)c3)cc2c1 [Compound 934] | 98.5% |
| CC(=O)c1ccc2[nH]c(CCCCOC(=O)c3ccc([N+](C)(C)C)cc3)cc2c1 [Compound 892] | 97.7% |
| C[n+]1ccc(C(=O)OCCCCCCCCc2cc3ccc(C(F)(F)F)cc3[nH]2)cc1 [Compound 900] | 84.9% |
| CC(=O)c1ccc2[nH]c(CCCCOC(=O)c3cccc([N+](C)(C)C)c3)cc2c1 [Compound 877] | 98.3% |
| C[N+](C)(C)c1cccc(C(=O)OCCCCCCCCc2cc3cc(Oc4ccccc4)ccc3[nH]2)c1 [Compound 873] | 98.0% |
| C[N+](C)(C)c1ccc(C(=O)OCCCCCCCCc2cc3cc(Oc4ccccc4)ccc3[nH]2)cc1 [Compound 888] | 99.0% |
| C[n+]1ccc(C(=O)OCCCCCCCCc2cc3cc(Oc4ccccc4)ccc3[nH]2)cc1 [Compound 903] | 95.5% |
| C[N+](C)(C)c1cccc(C(=O)OCCCCc2cc3ccc(C(F)(F)F)cc3[nH]2)c1 [Compound 868] | 13.5% |
| C[N+](C)(C)c1cccc(C(=O)OCCCCc2cc3cc(Oc4ccccc4)ccc3[nH]2)c1 [Compound 871] | 81.9% |
